Laboratory results as given in patent US12441775B2, “BCL-W polypeptides and mimetics for treating or preventing chemotherapy-induced peripheral neuropathy and hearing loss” (Dana-Farber Cancer Institute, Inc., priority 2016, dated 2025).

Columns and labels:
Format in all cases: cell-based, rat
[1] = system: axons of E15 DRG sensory neurons; assay: Axonal degeneration assay in compartmented chamber cultures (degeneration index); conditions: for axon degeneration (axonal fragmentation, degeneration index): 24 hours
Protocol: Cell culture. Compartmented chamber (Campenot) cultures were prepared as described (see, e.g., Fenstermacher et al., Springer Protocols: Neuromethods, 103:105-124 (2015)), with modifications. Briefly, DRGs from embryonic day 15 (E15) rats of either sex were dissected and trypsinized. DRGs (1.2×10^5 cells) were plated in the center compartment of a Teflon divider (Camp10, Tyler Research; Campenot, 1982) affixed to a p35 culture dish coated with growth factor reduced Matrigel basement membrane (BD Biosciences) 1:45 in DMEM. Cultures were maintained in media consisting of Neurobasal (Invitrogen) with 2% B27 supplement (Invitrogen), 1% penicillin-streptomycin, 1% GlutaMAX (Life Technologies), 0.08% glucose, and 0.3 μM cytosine arabinoside (AraC) at 37° C., 7.5% CO2; BDNF+NGF (PeproTech) were added to the cell body compartment at a concentration of 10 ng/ml and to the axon compartment at a concentration of 100 ng/ml for 2d. On day 3, media was replaced and the AraC was omitted. On day 5, neurotrophins were removed from the cell body compartment and reduced to 1 ng/ml in the axon compartments for 3-5 days. […] For calpain inhibition experiments, 20 μM calpain inhibitor III (VWR) and paclitaxel were added simultaneously to distal axon compartment.
Axonal degeneration assay. Compartmented chamber cultures were fixed at room temperature with 4% PFA diluted 1:2 in media for 10 min, then undiluted 4% PFA for an additional 20 min. Cultures were permeabilized with 0.1% TritonX-100 for 10 min, blocked in 3% BSA and 0.1% Triton X-100 for 1 hour at room temperature, and incubated with mouse anti-Tuj1 (1:400; clone Tuj1; Covance) overnight at 4° C. Cultures were then incubated with goat anti-mouse AlexaFluor (1:1000; Invitrogen) for 1 hour at room temperature and counterstained with DAPI. Images of distal axon tips were obtained using a 40× air objective, and axonal degeneration was quantified as a degeneration index, as previously described (Cosker et al., Neuroscience, 33:5195-5207 (2013)). Apoptosis analysis was carried out on the same cultures by taking images in the cell body compartment and counting total and condensed nuclei in NIH ImageJ software by an observer blind to condition.
Protein and peptide introduction. Recombinant His-tagged Bclw, Bcl2, and BclxL proteins (R&D Systems) or control β-galactosidase protein were introduced into cell bodies or axons of compartmented chamber cultures as described (e.g., Cosker et al., Nature Neuroscience, 19:690-696 (2016)). Briefly, 1 μg/μ1 protein was introduced into cultures using 2 μl Chariot reagent (Active Motif). To confirm expression of His-tagged proteins, cell bodies and axons were lysed in nonionic detergent, and protein lysates were separated as above and blotted with the following antibodies: anti-His (1:1000; Novagen) and anti-pan-actin (1:1000; Cell Signaling Technology). FITC-tagged SAHB peptides (BH4-Bclw, BH4-Bcl2, and BH4-BclxL; stock solutions 1 mM in DMSO) were introduced into cell bodies or axons using 350 ng peptide and 2 μl of Chariot reagent diluted 1:10 in water. Control was no peptide with 2 μl of 1:10 diluted Chariot. To confirm peptide expression, cultures were processed for axonal degeneration assay as above, and FITC immunofluorescence was examined with a 40× air objective. Paclitaxel was added to cultures 1 hour after protein or peptide transfection.

[2] = system: axonal mitochondria of E15 DRG neurons; assay: TMRE measurement of mitochondrial membrane potential in microfluidic cultures; conditions: paclitaxel added to distal axon compartment
Protocol: Microfluidic chambers cultures were prepared as described (see, e.g., Fenstermacher et al., Nature Neuroscience, 19:690-696 (2016)), with modifications. Briefly, 3×10^4E15 DRG neurons (4 μl volume) were plated into one channel of a microfluidic device (Xona Microfluidics, SND450) affixed to a PDL/laminin-coated cover glass (Fisherbrand Microscope Cover Glass; 24×40-1.5). Cells were plated in media with 0.3 μM AraC; 50 ng/mL NGF+BDNF was added to cell body wells, and 100 ng/ml was added to axon wells. On day 2, cell body neurotrophins were reduced to 10 ng/ml. On day 4, cell body neurotrophins were reduced to 1 ng/ml and axon neurotrophins were reduced to 10 ng/ml. For paclitaxel treatment experiments, 60 μM paclitaxel or 0.1% DMSO vehicle control was added on day 5 to axon wells for 48 hours. Cells were fixed at room temperature with 4% PFA diluted 1:2 in media for 10 min, then undiluted 4% PFA for an additional 10 min.
Tetramethylrhodamine ethyl ester measurements of mitochondrial membrane potential. […] Fluorescence intensity of axonal mitochondria was measured by dividing the fluorescence intensity of each mitochondria (Fm) by the background fluorescence intensity of a nearby cytoplasmic region (Fc). Fluorescence intensity was measured using NIH ImageJ software for 80 mitochondria per condition across three experiments, by an observer blind to condition.

[3] = system: E15 DRG sensory neurons; assay: Apoptosis analysis (condensed/total nuclei) in cell body compartment; conditions: paclitaxel to either subcellular compartment
Protocol: Cell culture. Compartmented chamber (Campenot) cultures were prepared as described (see, e.g., Fenstermacher et al., Springer Protocols: Neuromethods, 103:105-124 (2015)), with modifications. Briefly, DRGs from embryonic day 15 (E15) rats of either sex were dissected and trypsinized. DRGs (1.2×10^5 cells) were plated in the center compartment of a Teflon divider (Camp10, Tyler Research; Campenot, 1982) affixed to a p35 culture dish coated with growth factor reduced Matrigel basement membrane (BD Biosciences) 1:45 in DMEM. Cultures were maintained in media consisting of Neurobasal (Invitrogen) with 2% B27 supplement (Invitrogen), 1% penicillin-streptomycin, 1% GlutaMAX (Life Technologies), 0.08% glucose, and 0.3 μM cytosine arabinoside (AraC) at 37° C., 7.5% CO2; BDNF+NGF (PeproTech) were added to the cell body compartment at a concentration of 10 ng/ml and to the axon compartment at a concentration of 100 ng/ml for 2d. On day 3, media was replaced and the AraC was omitted. On day 5, neurotrophins were removed from the cell body compartment and reduced to 1 ng/ml in the axon compartments for 3-5 days. […]
Axonal degeneration assay. […] Images of distal axon tips were obtained using a 40× air objective, and axonal degeneration was quantified as a degeneration index, as previously described (Cosker et al., Neuroscience, 33:5195-5207 (2013)). […]

## CC(=O)O[C@H]1C(=O)[C@@]2(C)[C@H]([C@H](OC(=O)c3ccccc3)[C@]3(O)C[C@H](OC(=O)[C@H](O)[C@@H](NC(=O)c4ccccc4)c4ccccc4)C(C)=C1C3(C)C)[C@]1(OC(C)=O)CO[C@@H]1C[C@@H]2O [paclitaxel]
[1]; paclitaxel 30 nM added to cell body compartment
  axon degeneration (axonal fragmentation, degeneration index): no effect
[1]; paclitaxel 30 nM added to distal axon compartment
  axon degeneration (axonal fragmentation, degeneration index): increase axon degeneration
[1]; paclitaxel after shRNA knockdown of Bclw
  axonal degeneration: further increased axonal degeneration
[2]
  axonal mitochondrial membrane potential (TMRE Fm/Fc): reduced axonal mitochondrial membrane potential
[3]
  cell body apoptosis assessed by nuclear condensation: did not induce cell body apoptosis
